We go through one substance from patent US20040142393A1, “Methods of use of compounds with preptin function” (priority 2002, published 2004).

One test deals with NIH-3T3 fibroblast cells. The test can be described thus: Stimulation of proliferation of NIH-3T3 cells (3H-thymidine uptake). Particulars: 10, 50, 100 and 500 nM preptin; FIG. 1. The test is classed as cell-based. As for the experimental part: NIH-3T3 cells may be used for various purposes including research regarding mitogenicity investigations. See, e.g., Buergisser et al. (1990). BiochemBiophys Res Comm 169(3): 832-839; Burgisser et al. (1991). J Biol. Chem 266(2): 1029-33; Yang et al. (1996). Endocrinol 137(7): 2766-2773; Geddes et al. (2001). Prot Engin 14(1): 61-65. NIH-3T3 cells were seeded in 24 well plates at a density of 3×10^4 cells/well. Cells were grown at 37° C. for 24 hours in high glucose DMEM (supplemented with 30 mM sodium hydrogen carbonate, 2 mM L-glutamine, 10^5 IU/l penicillin, 0.01% streptomycin sulphate) and 10% fetal calf serum, after which time they were serum starved for 24 hours in high DMEM and 0.2% BSA. […] This alkaline cell lysate was then neutralized with 200 μl of 0.2M HCl before 300 μl aliquots were mixed with 2 ml of Starscint scintillation fluid, and counted on a scintillation counter.
One method of measuring cell proliferation is via the incorporation of labeled nucleotides (e.g., [3H]-thymidine) into- newly synthesized DNA during cell division. For example, one of the most familiar and widely used methods for quantifying cell proliferation is the measurement of tritiated thymidine ([3H]-thymidine) incorporation. […]

A further test has as its system INS-1E β-cells. Put plainly: Stimulation of proliferation of INS-1E β-cells (3H-thymidine uptake). Particulars: general statement; test with 10 nM rat preptin in INS-1E cells, FIG. 2. The test is classed as cell-based. As for the experimental part: INS-1E cells were seeded in 24 well plates at a density of 2×10^5 cells/well. Cells were grown at 37° C. for 24 hours in modified RPMI-1640 (GIBCO R-1383 Lot108H83032; supplemented with 23.8 mM sodium hydrogen carbonate, 2 mM L-glutamine, 10 mM HEPES, 50 μM β-Mercaptoethanol, 1 mM Sodium Pyruvate, 10^5 IU/l penicillin, 0.01% streptomycin sulphate) and 10% fetal calf serum, after which time they were serum starved for 24 hours in modified RPMI-1640. The serum free medium was then replaced with 500 μl of RPMI-1640 containing the following:
0% fetal calf serum (negative control), 10% fetal calf serum (positive control), 10 nM of rat preptin (rPreptin 10 nM), 10 nM of human GLP-1 (hGLP-1 10 nM), 10 nM of human IGF-II (hIGF-II 10 nM), and cells were incubated for a further 18 hours before the addition of 5 μCi of ^3H-thymidine to each well. After a further 6 hours incubation, medium was aspirated and cells were washed twice with cold PBS, once with cold 5% TCA, and twice with cold 100% ethanol. Plates were then air-dried for 30 minutes before cells were solubilized with 400 μl of 0.5M NaOH. This alkaline c ell lysate was then neutralized with 400 μl of 0.5M HCl before 500 μl aliquots were mixed with 2 ml of Starscint scintillation fluid, and counted on a scintillation counter. […]

A further test concerns insulin secretion. Conditions: Buchanan et al. (2001) Biochem. J. 360: 431-439; cited from earlier work.

“preptin: peptide of 34 amino acids, Formula (I); corresponds to Asp69-Leu102 of proinsulin-like growth factor II (DVSTPPTVLPDNFPRYPVGKFFQYDTWKQSTQRL; Preptin; UniProt P01344 93-126, looked up)”: the “effect on the proliferation of NIH-3T3 fibroblast cells (tritiated thymidine uptake)” value with NIH-3T3 fibroblast cells is recorded as “dose dependent effect”. The “proliferation of pancreatic islet β-cells” value in the test on INS-1E β-cells is listed as “stimulate proliferation”. Moreover, the “effect on insulin secretion” value in the test with insulin secretion is “enhance, but not initiate, insulin secretion”.
